Measured values published in patent US10590118B2, “Bicyclic heterocyclic derivatives as bromodomain inhibitors” (Orion Corporation, priority 2014, dated 2020).

Target: T1, Bet bromodomain protein (BRD4) (Homo sapiens, UniProt O60885)
T1 construct: made in house
Experiment: Bet bromodomain TR-FRET assay
Format: binding
Details: 300 nM acetyl histone peptide substrate, results given as Group A/B/C
Protocol: In-Vitro Biochemical Data of bicyclic heterocyclic derivatives in time-resolved fluorescence resonance energy transfer (TR-FRET) assay.
The Bet brommodomain TR-FRET assay has been used to identify compounds that bind to bet bromodomain and prevent its interaction with acetylated histone peptides.
In the assay, optimized concentration of in-house Bet bromodomain protein (BRD4) and 300 nM of acetyl histone peptide substrate were diluted in assay buffer (50 mM HEPES, pH: 7.5, 50 mM NaCl, 500 μM CHAPS) and were added to the positive control and test control wells in a 384 well plate. Substrate control wells have 300 nM of acetyl histone peptide substrate diluted in assay buffer. Buffer blank wells were added with assay buffer. The reaction mixture was allowed for incubation at room temperature for 30 mins. Stock solutions of test compounds at 20 mM DMSO are prepared. Compounds are serially diluted and added to the test wells in 384-well polypropylene plates. The reaction mixture was further incubated for 30 mins at room temperature on a plate shaker. 2 nM of Europium labeled streptavidn and 10 nM of XL-665 labeled antibody diluted in detection buffer (50 mM HEPES, pH: 7.5, 50 mM NaCl, 500 μM CHAPS and 800 mM KF) were added to all the wells excluding the buffer blank wells. The reaction plate was incubated for additional 30 mins at room temperature on plate shaker. The plate was read in Perkin Elmer WALLAC 1420 Multilabel Counter Victor 3 (Ex: 340 nm Em: 615 and 665 nm). The amount of displacement of the peptide was measured as ratio of specific 665 nm energy transfer signal to 615 nm signals. The compounds IC50 was determined by fitting the dose response data to sigmoid curve fitting equation using Graph Pad Prism software V5.

SMILES	IC50 [nM]
COc1cc2c(cc1-c1c(C)noc1C)cc(C(O)C(F)(F)F)c(=O)n2Cc1ccccn1 (racemic) [Compound 101, 6-(3,5-dimethylisoxazol-4-yl)-methoxy-1-(pyridin-2-ylmethyl)-3-(2,2,2-trifluoro-1-hydroxyethyl)quinolin-2(1H)-one]	≤ 1000
COc1cc2c(cc1-c1c(C)noc1C)OCC(=O)N2C(C)c1ccc(Cl)cc1 (single isomer, unassigned) [Compound 34, 4-(1-(4-chlorophenyl)ethyl)-7-(3,5-dimethylisoxazol-4-yl)-6-methoxy-2H-benzo[b][1,4]oxazin-3(4H)-one]	≤ 1000
COc1cc2c(ccc(=O)n2S(=O)(=O)c2ccc(Cl)cc2)cc1-c1c(C)noc1C [Compound 14, 1-((4-chlorophenyl)sulfonyl)-6-(3,5-dimethylisoxazol-4-yl)-7-methoxyquinolin-2(1H)-one]	> 3000
COc1cc2c(cc1-c1c(C)noc1C)cc(C1CCCCC1)c(=O)n2Cc1ccccn1 [Compound 68, 3-cyclohexyl-6-(3,5-dimethylisoxazol-4-yl)-7-methoxy-1-(pyridin-2-ylmethyl)quinolin-2(1H)-one]	≤ 1000
COc1cc2c(ccc(=O)n2Cc2ccccn2)cc1-c1conc1C [Compound 64, 7-methoxy-6-(3-methylisoxazol-4-yl)-1-(pyridin-2-ylmethyl)quinolin-2(1H)-one]	≤ 1000
Cc1noc(C)c1-c1cc2ccc(=O)n(Cc3ccccn3)c2cc1OCc1ccncc1 [Compound 83, 6-(3,5-dimethylisoxazol-4-yl)-1-(pyridin-2-ylmethyl)-7-(pyridin-4-ylmethoxy)quinolin-2(1H)-one]	≤ 1000
COc1cc2c(cc1-c1c(C)noc1C)OCC(=O)N2Cc1ccc(C)nc1 [Compound 32, 7-(3,5-dimethylisoxazol-4-yl)-6-methoxy-4-((6-methylpyridin-3-yl)methyl)-2H-benzo[b][1,4]oxazin-3(4H)-one]	≤ 1000
COc1cc2c(cc1-c1c(C)noc1C)c(C(F)(F)F)cc(=O)n2Cc1ccccn1 [Compound 54, 6-(3,5-dimethytisoxazol-4-yl)-7-methoxy-1-(pyridin-2-ylmethyl)-4-(trifluoromethyl)quinolin-2(1H)-one]	> 3000
COc1cc2c(cc1-c1c(C)noc1C)cc(C)c(=O)n2Cc1ccccn1 [Compound 50, 6-(3,5-dimethylisoxazol-4-yl)-7-methoxy-3-methyl-1-(pyridin-2-ylmethyl)quinolin-2(1H)-one]	≤ 1000
COc1cc2c(ccc(=O)n2CCc2ccccn2)cc1-c1c(C)noc1C [Compound 42, 6-(3,5-dimethylisoxazol-4-yl)-7-methoxy-1-(2-(pyridin-2-yl)ethyl)quinolin-2(1H)-one]	1000 to 3000
COc1cc2c(cc1-c1c(C)noc1C)ncc(=O)n2Cc1ccc(Cl)cc1 [Compound 4, 1-(4-chlorobenzyl)-6-(3,5-dimethylisoxazol-4-yl)-7-methoxyquinoxalin-2(1H)-one]	≤ 1000
Cc1noc(C)c1-c1cc2ccc(=O)n(Cc3ccccn3)c2cc1OCCC1CCNCC1 [Compound 88, 6-(3,5-dimethylisoxazol-4-yl)-7-(2-(piperidin-4-yl)ethoxy)-1-(pyridin-2-ylmethyl)quinolin-2(1H)-one]	1000 to 3000
COc1cc2c(cc1-c1c(C)noc1C)OCC(=O)N2C(C)c1cccnc1 (single isomer, unassigned) [Compound 24, 7-(3,5-dimethytisoxazol-4-yl)-6-methoxy-4-(1-(pyridin-3-yl)ethyl)-2H-benzo[b][1,4]oxazin-3(4H)-one]	≤ 1000
Cc1noc(C)c1-c1cc2ccc(=O)n(Cc3ccccn3)c2cc1OCCN1CCCC1 [Compound 81, 6-(3,5-dimethylisoxazol-4-yl)-1-(pyridin-2-ylmethyl)-7-(2-(pyrrolidin-1-yl)ethoxy)quinolin-2(1H)-one]	1000 to 3000
COc1cc2c(cc1-c1c(C)noc1C)OCC(=O)N2C(C)c1ccc(Cl)cc1 (single isomer, unassigned) [Compound 33, 4-(1-(4-chlorophenyl)ethyl)-7-(3,5-dimethylisoxazol-4-yl)-6-methoxy-2H-benzo[b][1,4]oxazin-3(4H)-one]	1000 to 3000
